In data set [1] the test system is amphetamine-provoked hypermotility. Description: inhibition of amphetamine-provoked hypermotility (psychosedative effect). It counts as in vivo. Particulars: mice, amphetamine 3 mg/kg s.c. simultaneously, control = 100%. As for the experimental part:
This conclusion was based upon experimentation with mice by measuring their inhibition ability exerted on amphetamine-provoked hypermotility. the animals so tested were treated subcutaneously with 3 mg/kg of amphetamine (α-methyl-phenethylamine)while simultaneously administering the novel compound of formula (I) herein. A control test was run in which no psychosedative agent was used. The extent of hypermotility observed in the control group treated only with 3 mg/kg of amphetamine was regarded as 100%, and the percentage of inhibition observed in the test groups was related to this value.

A short description of data set [2]: acute toxicity, subcutaneous administration. The settings on record: mouse, in vivo, sc, mice. As for the experimental part: The acute toxicities of the new compounds having the general formula (I) were measured on mice, under subcutaneous administration.
Another data set relates to waking cats. Description: behavioural effects in waking cats, compared with scopolamine. Particulars: for akinesia / standing position / behavioural effects in cats (first effects) / paralysis: s.c. 100 mg/kg isomer "b", 150 mg/kg scopolamine; for paralysis: 30 minutes after administration. It counts as in vivo. As to the method:
Accordingly, the effects of this "b" iosmer were compared directly with scopolamine by the use of a subcutaneous dosage of 100 mg/kg of the former and 150 mg/kg of the latter.

Another data set deals with waking dogs. Briefly: behavioural effects in waking dogs, compared with scopolamine. It counts as in vivo.
For data set [3], the system named is analgesic effect of morphine. Description: potentiation of the analgesic effect of morphine. The settings on record: in vivo.
Data set [4] has as its system narcosis provoked by hexobarbital. Description: potentiation of the narcosis provoked by hexobarbital. The settings on record: in vivo.
Data set [5] can be described thus: anticholinergic / atropine-like activity. The settings on record: in vivo.
The conditions of data set [6]: well-known, cited from earlier work.

The structures appear in SMILES notation. “And” between values parts separate entries of the source, which are not always exact repeats. Identical values can stand only once. “Also recorded” adds a separate entry of the source.

`CCOc1cc2c(cc1OCC)C1CC(=NO)C3CCCCC3N1CC2` (stereo not shown) [2-Hydroxyimino-3,4-cyclohexano-9,10-diethoxy-1,2,3,4,6,7,-hexahydro-11bH-benzo[a]quinolisine]: in data set [1] (100 mg/kg s.c.), the “Inhibition (of amphetamine-provoked hypermotility)” value (“Inhibition” for short) amounted to 85%. Moreover, the LD50 in data set [2] is more than 300 mg/kg.
For the compound `COc1cc2c(cc1OC)C1CC(=NO)C3CCCCC3N1CC2` (stereo not shown) [2-Hydroxyimino-3,4-cyclohexano-9,10-dimethoxy-1,2,3,4,6,7-he] [2-Hydroxyimino-3,4-cyclohexano-9,10-dimethoxy-1,2,3,4,6,7-hexahydro-11bH-benzo[a]quinolisine], the “Inhibition” value in data set [1] (20 mg/kg s.c.) came out at 66%. Besides, the “Inhibition” value in data set [1] (100 mg/kg s.c.) was 33%. Besides, in the data set on waking cats (cats), the “akinesia / standing position” value was “more complete akinesia than scopolamine; also recorded: could not be brought to a standing position, their limbs immediately sliding apart although the carriage of their heads remained stationary”; the “behavioural effects in cats (first effects)” value is “restlessness coupled with hallucinations of the same type and degree”; the paralysis entry is “all animals were paralyzed”. For the same compound, in the data set with waking cats (cats, s.c., capsaicine into eyes), the “response to capsaicine dropped into the eyes” value is “long-lasting blepharospasm and mewing”. Also, in the data set with waking cats (cats, s.c., painful stimuli), the “response to painful stimuli” value was “strong mewing response”. Further, in the data set on waking cats (waking cats), the “symptoms in waking cats compared with scopolamine” value is “symptons similar to those os scopolamine”. In the data set on waking dogs, the “symptoms in waking dogs compared with scopolamine” value is “symptons similar to those os scopolamine”. Also, in the data set on waking dogs (10 mg/kg s.c.), the “awakening upon smell, slight noise and tactile stimuli” value was “not a narcotic effect, for the dogs were awakened readily upon smell stimuli related to food or slight noice and tactile stimuli”; the behavior after awakening entry is given as “normal behavior after awakening”; the “behavioural effects in waking dogs” value is “remarkable quietness and the animals fell asleep”. Besides, in data set [3], the “potentiation of the analgesic effect of morphine” value is reported as “did not potentiate the analgesic effect of morphine”. Besides, the “potentiation of the narcosis provoked by hexobarbital” value in data set [4] is “nor did it potentiate the narcosis provoked by hexobarbital”.
Turning to `COc1cc2c(cc1OC)C1CC(=NO)C3CCCC3N1CC2` (stereo not shown) [2-Hydroxyimino-3,4-cyclopentano-9,10-dimethoxy-1,2,3,4,6,7-h] [2-Hydroxyimino-3,4-cyclopentano-9,10-dimethoxy-1,2,3,4,6,7-hexahydro-11bH-benzo[a]quinolisine], the “Inhibition” value in data set [1] (100 mg/kg s.c.) is 40% and 61%.
`COc1cc2c(cc1OC)C1CC(=NO)C3CCCC3N1CC2` (stereo not shown) [2-Hydroxyimino-3,4-cyclopentano-9,10-dimethoxy-1,2,3,4,6,7-hexahydro-11bH-benzo[a]quinolisine]: the LD50 in data set [2] is more than 500 mg/kg.
For the compound `CN1[C@@H]2C[C@@H](OC(=O)[C@H](CO)c3ccccc3)C[C@H]1[C@@H]1O[C@@H]12` [scopolamine], in the data set on waking cats (cats), the “akinesia / standing position” value is “remained in a standing position”; the “behavioural effects in cats (first effects)” value is “restlessness coupled with hallucinations of the same type and degree”; the paralysis result was “all animals were paralyzed”. Moreover, in data set [5], the anticholinerg activity entry is recorded as “did not exert anticholinerg activity” and the atropine-like effect entry was “marked atropine-like effect”. Also, the therapeutic psychosedative effects result in data set [6] (small dosages) is given as “therapeutic psychosedative effects”. Besides, the side effects result in data set [6] is reported as “strong atropine-like parasympatholytic side effects”.

Source of the values: patent US4052403A, “2-Hydroxyimino-1,2,3,4,6,7-hexahydro-11bH-benzo [a] quinolisine derivatives” (EGYT Gyogyszervegyeszeti Gyar, priority 1975, dated 1977).
